{"source": "patent US20190374563A1", "about": "“TREATMENT OF KLEBSIELLA PNEUMONIAE INFECTIONS WITH ANTIBACTERIAL AMINOGLYCOSIDE COMPOUNDS” (Achaogen, Inc., priority 2009, published 2019)", "key": {"[1]": {"system": "P. aeruginosa ATCC 27853 (APAE001)", "assay": "MIC assay, CLSI broth microdilution", "format": "cell-based", "conditions": "Pseudomonas aeruginosa; Table 1; APAE001 is ATCC27853; read-out: MIC APAE001", "method_in_brief": "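Test compounds were diluted two-fold at 2× strength in Mueller Hinton Broth, then combined 1:1 with saline-suspended bacteria from an overnight agar colony to reach 5×10^5 CFU/mL. Incubation followed at 35° C. for 20 hours in ambient air, per CLSI reference methods.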"}, "[2]": {"system": "K. pneumoniae AKPN 1073 (MDR, AG-resistant clinical isolate)", "assay": "murine neutropenic thigh model", "format": "in vivo", "conditions": "two highest dosages; AKPN 1073, challenge 1.3×10^4 CFU; FIG. 3", "method": "(§1) The in vivo activity of Example 1 in the mouse neutropenic thigh model (Andes and Craig. Antimicrob Agents Chemother. 2002, 46:1665-1670) was determined against seven bacterial strains including susceptible Escherichia coli and Klebsiella pneumoniae; multi-drug resistant (MDR) clinical isolates of E. coli and K. pneumoniae that display resistance to multiple antibiotics (including AGs); MRSA; and two K. pneumoniae carbapenemases (KPC)-expressing strains (see Table 5). For this efficacy model, groups of six CD-1 mice were rendered neutropenic by two intraperitoneal injections of cyclophosphamide. The first injection was 150 mg/kg three days prior to infection (day −4), and the second injection was 100 mg/kg one day prior to infection (day −1). On study day 0, animals were inoculated intramuscularly (0.1 ml) with a known number of colony forming units (CFU) of the specified bacterial strain (ATCC 25922, AECO 1003, ATCC 43816, AKPN 1073, AKPN 1109, ATCC 33591 or ASMA 1030), tailored to the virulence of each strain in the model to maximize bacterial load while avoiding mortality in the untreated control arms. Antibiotics were administered via subcutaneous injection at 2 and 14 hours after bacterial challenge. At 26 hours, infected thigh tissue was harvested, homogenized, and plated to count CFU. […]"}, "[3]": {"system": "P. aeruginosa ATCC 27853", "assay": "murine septicemia model of infection", "format": "in vivo", "conditions": "mice, single SC or IV dose 1 hour after IP challenge, mortality for 7 days; ED50 values are mg/kg", "method": "(§2) Two models were run on each compound, using E. coli and P. aeruginosa QC bacterial strains. Both studies employed the same design. […] At 1 hour after bacterial challenge, the mice received a single SC or IV dose of vehicle or test substance to assess in vivo anti-infective activity. Mortality was recorded once daily for 7 days after bacterial inoculation."}, "[4]": {"system": "E. coli ATCC 25922", "assay": "murine septicemia model of infection", "format": "in vivo", "conditions": "mice, single SC or IV dose 1 hour after IP challenge, mortality for 7 days; ED50 values are mg/kg", "method": "as §2"}, "[5]": {"system": "K. pneumoniae producing KPC (n = 25)", "assay": "MIC by microdilution, clinical isolates", "format": "cell-based", "conditions": "Klebsiella pneumoniae, K. pneumoniae producing KPC (n = 25)", "method": "(§3) The in vitro activity of representative antibacterial aminoglycoside compounds against a collection of 102 K. pneumoniae clinical isolates collected from January 2006 to October 2007 at the University of Pittsburgh Medical Center, and three Cleveland institutions including University Hospitals Case Medical Center, the Cleveland Clinic, and the Louis Stokes Department of Veterans Affairs Medical Center was analyzed. The 102 K. pneumoniae isolates were selected based on a multidrug-resistant (MDR) phenotype (i.e., resistance to >3 antibiotic classes). Twenty-five isolates were KPC carbapenemase producing (KPC-Kp), and were part of a previous study where the β-lactamase background and clonality were characterized (see Endimiani, A., A. M. Hujer, F. Perez, C. R. Bethel, K. M. Hujer, J. Kroeger, M. Oethinger, D. L. Paterson, M. D. Adams, M. R. Jacobs, D. J. Diekema, G. S. Hall, S. G. Jenkins, L. B. Rice, F. C. Tenover, and R. A. Bonomo. 2009. Characterization of blaKPC-containing Klebsiella pneumoniae isolates detected in different institutions in the Eastern USA. J Antimicrob Chemother 63:427-37).\n(§4) Minimum inhibitory concentrations (MICs) were performed by microdilution method using cation-adjusted Mueller-Hinton broth, according to the Clinical and Laboratory Standards Institute (CLSI) criteria (see CLSI. 2006. Methods for dilution antimicrobial susceptibility tests for bacteria that grow aerobically; approved standard-Seventh edition. Clinical and Laboratory Standard Institute, Wayne, Pa. CLSI document M7-A7). These MIC assays were conducted following the same protocol as set forth in Example 110. […] The following ATCC control strains were used: Escherichia coli ATCC 25922, Pseudomonas aeruginosa ATCC 27853, and K. pneumoniae ATCC 700603."}, "[6]": {"system": "multidrug-resistant (MDR) K. pneumoniae isolates (n = 102)", "assay": "MIC by microdilution, clinical isolates", "format": "cell-based", "method": "as §3, §4"}, "[7]": {"system": "E. coli AECO 1003 (MDR, AG-resistant clinical isolate)", "assay": "murine neutropenic thigh model", "format": "in vivo", "conditions": "highest dosage; AECO 1003, challenge 1.5×10^3 CFU; FIG. 2", "method": "as §1"}, "[8]": {"system": "S. aureus ATCC 33591 (MRSA)", "assay": "murine neutropenic thigh model", "format": "in vivo", "conditions": "two highest dosages; MRSA ATCC 33591, challenge 1.2×10^3 CFU; FIG. 5", "method": "as §1"}, "[9]": {"system": "K. pneumoniae AKPN 1109 (KPC-expressing clinical isolate)", "assay": "murine neutropenic thigh model", "format": "in vivo", "conditions": "highest test dosage; AKPN 1109, challenge 8.3×10^5 CFU; FIG. 4", "method": "(§5) The in vivo activity of Example 1 in the mouse neutropenic thigh model (Andes and Craig. Antimicrob Agents Chemother. 2002, 46:1665-1670) was determined against seven bacterial strains including susceptible Escherichia coli and Klebsiella pneumoniae; multi-drug resistant (MDR) clinical isolates of E. coli and K. pneumoniae that display resistance to multiple antibiotics (including AGs); MRSA; and two K. pneumoniae carbapenemases (KPC)-expressing strains (see Table 5). For this efficacy model, groups of six CD-1 mice were rendered neutropenic by two intraperitoneal injections of cyclophosphamide. The first injection was 150 mg/kg three days prior to infection (day −4), and the second injection was 100 mg/kg one day prior to infection (day −1). On study day 0, animals were inoculated intramuscularly (0.1 ml) with a known number of colony forming units (CFU) of the specified bacterial strain (ATCC 25922, AECO 1003, ATCC 43816, AKPN 1073, AKPN 1109, ATCC 33591 or ASMA 1030), tailored to the virulence of each strain in the model to maximize bacterial load while avoiding mortality in the untreated control arms. Antibiotics were administered via subcutaneous injection at 2 and 14 hours after bacterial challenge. At 26 hours, infected thigh tissue was harvested, homogenized, and plated to count CFU. Untreated control animals were harvested at 2 hours post-infection to assess the initial bacterial load and at 26 hours post-infection to measure growth in the absence of antibiotic treatment."}, "[10]": {"system": "K. pneumoniae ATCC 43816 (susceptible)", "assay": "murine neutropenic thigh model", "format": "in vivo", "method": "as §5"}, "[11]": {"system": "E. coli ATCC 25922 (susceptible)", "assay": "murine neutropenic thigh model", "format": "in vivo", "method": "as §5"}, "[12]": {"system": "seven bacterial strains", "assay": "murine neutropenic thigh model, statements over all strains", "format": "in vivo", "method": "as §5"}}}
{"smiles": "CN[C@@H]1[C@@H](O)[C@@H](O[C@@H]2[C@@H](O)[C@H](O[C@H]3OC(CNCCO)=CC[C@H]3N)[C@@H](N)C[C@H]2NC(=O)[C@@H](O)CCN)OC[C@]1(C)O", "note": "[Example 1, 6′-(2-Hydroxy-ethyl)-1-(4-amino-2(S)-hydroxy-butyryl)-sisomicin]", "values": [{"measurement": "MIC", "setting": "[1]", "value": "1 to 16", "unit": "µg/mL"}, {"measurement": "bacterial load after 24 hours of treatment versus initial bacterial load", "setting": "[2]", "value": "reduced to below the level of the initial bacterial load"}, {"measurement": "ED50/MIC P. aeruginosa", "setting": "[3]", "value": 4}, {"measurement": "ED50/MIC E. Coli", "setting": "[4]", "value": "<2"}, {"measurement": "MIC50", "setting": "[5]; read-out: MIC50", "value": 0.5, "unit": "µg/mL"}, {"measurement": "MIC90", "setting": "[5]; read-out: MIC90", "value": 1, "unit": "µg/mL"}, {"measurement": "MIC50", "setting": "[6]; Klebsiella pneumoniae, Total MDR K. pneumoniae isolates (n = 102), read-out: MIC50", "value": 0.5, "unit": "µg/mL"}, {"measurement": "MIC90", "setting": "[6]; Klebsiella pneumoniae, Total MDR K. pneumoniae isolates (n = 102), read-out: MIC90", "value": 1, "unit": "µg/mL"}, {"measurement": "MIC", "setting": "[6]; Klebsiella pneumoniae, all MDR and KPC-Kp strains, read-out: MICs for all strains", "value": "≤ 4", "unit": "µg/mL"}, {"measurement": "MIC90 lower than that of amikacin", "setting": "[6]; MDR and KPC-Kp strains", "value": "at least 5 twofold dilutions"}, {"measurement": "bacterial titer after 24 hours of treatment versus initial bacterial load", "setting": "[7]", "value": "reduced to below the initial bacterial load"}, {"measurement": "bacterial load after 24 hours of treatment versus initial bacterial load", "setting": "[8]", "value": "reduced to below the initial bacterial load"}, {"measurement": "bacterial load after 24 hours of treatment versus initial bacterial load", "setting": "[9]", "value": "reduced back to the level of the initial bacterial load"}, {"measurement": "ED50/MIC", "setting": "[10]", "value": 7.4}, {"measurement": "ED50/MIC", "setting": "[11]", "value": 8.4}, {"measurement": "bacterial titers versus initial bacterial load (static level)", "setting": "[12]; all 7 strains", "value": "reducing bacterial titers back to or below the initial bacterial load"}, {"measurement": "ED50 against gentamicin resistant strains", "setting": "[12]; gentamicin resistant strains", "value": "efficacious"}, {"measurement": "ratio of in vivo efficacy to in vitro activity (ED50/MIC)", "setting": "[12]; in words", "value": "comparable to that of gentamicin"}, {"measurement": "in vivo efficacy (ED50) against strains susceptible to gentamicin", "setting": "[12]; strains susceptible to gentamicin, in words", "value": "comparable to gentamicin"}]}
